{"source": "PubChem BioAssay (NCI)", "experiment_in_all_cases": "growth of human tumour cells (NCI), 48 h", "key": {"NCI-H23 lung": {"tested_on": "NCI-H23 lung"}, "NCI-H460 lung": {"tested_on": "NCI-H460 lung"}, "NCI-H522 lung": {"tested_on": "NCI-H522 lung"}, "NCI/ADR-RES ovarian": {"tested_on": "NCI/ADR-RES ovarian"}, "OVCAR-3 ovarian": {"tested_on": "OVCAR-3 ovarian"}, "OVCAR-4 ovarian": {"tested_on": "OVCAR-4 ovarian"}, "OVCAR-5 ovarian": {"tested_on": "OVCAR-5 ovarian"}, "OVCAR-8 ovarian": {"tested_on": "OVCAR-8 ovarian"}, "PC-3 prostate": {"tested_on": "PC-3 prostate"}, "RPMI-8226 leukemia": {"tested_on": "RPMI-8226 leukemia"}, "RXF 393 renal": {"tested_on": "RXF 393 renal"}, "SF-268 CNS": {"tested_on": "SF-268 CNS"}, "SF-295 CNS": {"tested_on": "SF-295 CNS"}, "SF-539 CNS": {"tested_on": "SF-539 CNS"}, "SK-MEL-2 melanoma": {"tested_on": "SK-MEL-2 melanoma"}, "SK-MEL-28 melanoma": {"tested_on": "SK-MEL-28 melanoma"}, "SK-MEL-5 melanoma": {"tested_on": "SK-MEL-5 melanoma"}, "SK-OV-3 ovarian": {"tested_on": "SK-OV-3 ovarian"}, "SN12C renal": {"tested_on": "SN12C renal"}, "SNB-19 CNS": {"tested_on": "SNB-19 CNS"}, "SNB-75 CNS": {"tested_on": "SNB-75 CNS"}, "SR leukemia": {"tested_on": "SR leukemia"}, "SW-620 colon": {"tested_on": "SW-620 colon"}, "TK-10 renal": {"tested_on": "TK-10 renal"}, "U251 CNS": {"tested_on": "U251 CNS"}, "UACC-257 melanoma": {"tested_on": "UACC-257 melanoma"}, "UACC-62 melanoma": {"tested_on": "UACC-62 melanoma"}, "UO-31 renal": {"tested_on": "UO-31 renal"}}, "note": "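In this assay, cells in 96-well plates receive the compound at five concentrations for 48 hours. Endpoints are linearly interpolated between the surrounding concentrations. GI50 is the concentration that inhibits growth by half. TGI: total growth inhibition.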", "data": [{"compound": "CC1OC(O[C@@H]2C(O)C(CO)OC(O[C@H]3COC(O[C@H]4CC[C@]5(C)[C@H]6CC[C@]78OC[C@@]9(CC[C@](C)(C=O)C[C@H]97)[C@H](O)C[C@@]8(C)[C@]6(C)CC[C@H]5C4(C)C)[C@@H](OC4OC(CO)[C@@H](O)[C@@H](O)[C@@H]4O)[C@@H]3O)[C@H]2OC2OC[C@@H](O)[C@@H](O)[C@@H]2O)[C@@H](O)[C@@H](O)[C@H]1O", "note": "(stereo partly specified)", "values": [{"measurement": "GI50", "setting": "NCI-H23 lung", "result": 1890, "unit": "nM"}, {"measurement": "TGI", "setting": "NCI-H23 lung", "result": 3740, "unit": "nM"}, {"measurement": "GI50", "setting": "NCI-H460 lung", "result": 1880, "unit": "nM"}, {"measurement": "TGI", "setting": "NCI-H460 lung", "result": 3830, "unit": "nM"}, {"measurement": "GI50", "setting": "NCI-H522 lung", "result": 1970, "unit": "nM"}, {"measurement": "TGI", "setting": "NCI-H522 lung", "result": 3750, "unit": "nM"}, {"measurement": "GI50", "setting": "NCI/ADR-RES ovarian", "result": 1970, "unit": "nM"}, {"measurement": "TGI", "setting": "NCI/ADR-RES ovarian", "result": 4150, "unit": "nM"}, {"measurement": "GI50", "setting": "OVCAR-3 ovarian", "result": 1980, "unit": "nM"}, {"measurement": "TGI", "setting": "OVCAR-3 ovarian", "result": 3820, "unit": "nM"}, {"measurement": "GI50", "setting": "OVCAR-4 ovarian", "result": 1840, "unit": "nM"}, {"measurement": "TGI", "setting": "OVCAR-4 ovarian", "result": 3930, "unit": "nM"}, {"measurement": "GI50", "setting": "OVCAR-5 ovarian", "result": 1860, "unit": "nM"}, {"measurement": "TGI", "setting": "OVCAR-5 ovarian", "result": 3420, "unit": "nM"}, {"measurement": "GI50", "setting": "OVCAR-8 ovarian", "result": 2100, "unit": "nM"}, {"measurement": "TGI", "setting": "OVCAR-8 ovarian", "result": 4280, "unit": "nM"}, {"measurement": "GI50", "setting": "PC-3 prostate", "result": 1950, "unit": "nM"}, {"measurement": "TGI", "setting": "PC-3 prostate", "result": 3640, "unit": "nM"}, {"measurement": "GI50", "setting": "RPMI-8226 leukemia", "result": 1730, "unit": "nM"}, {"measurement": "TGI", "setting": "RPMI-8226 leukemia", "result": 4280, "unit": "nM"}, {"measurement": "GI50", "setting": "RXF 393 renal", "result": 811, "unit": "nM"}, {"measurement": "TGI", "setting": "RXF 393 renal", "result": 2400, "unit": "nM"}, {"measurement": "GI50", "setting": "SF-268 CNS", "result": 1910, "unit": "nM"}, {"measurement": "TGI", "setting": "SF-268 CNS", "result": 3910, "unit": "nM"}, {"measurement": "GI50", "setting": "SF-295 CNS", "result": 1760, "unit": "nM"}, {"measurement": "TGI", "setting": "SF-295 CNS", "result": 3310, "unit": "nM"}, {"measurement": "GI50", "setting": "SF-539 CNS", "result": 1610, "unit": "nM"}, {"measurement": "TGI", "setting": "SF-539 CNS", "result": 3100, "unit": "nM"}, {"measurement": "GI50", "setting": "SK-MEL-2 melanoma", "result": 2330, "unit": "nM"}, {"measurement": "TGI", "setting": "SK-MEL-2 melanoma", "result": 4240, "unit": "nM"}, {"measurement": "GI50", "setting": "SK-MEL-28 melanoma", "result": 1690, "unit": "nM"}, {"measurement": "TGI", "setting": "SK-MEL-28 melanoma", "result": 3290, "unit": "nM"}, {"measurement": "GI50", "setting": "SK-MEL-5 melanoma", "result": 2380, "unit": "nM"}, {"measurement": "TGI", "setting": "SK-MEL-5 melanoma", "result": 5810, "unit": "nM"}, {"measurement": "GI50", "setting": "SK-OV-3 ovarian", "result": 1920, "unit": "nM"}, {"measurement": "TGI", "setting": "SK-OV-3 ovarian", "result": 3490, "unit": "nM"}, {"measurement": "GI50", "setting": "SN12C renal", "result": 1700, "unit": "nM"}, {"measurement": "TGI", "setting": "SN12C renal", "result": 3510, "unit": "nM"}, {"measurement": "GI50", "setting": "SNB-19 CNS", "result": 1810, "unit": "nM"}, {"measurement": "TGI", "setting": "SNB-19 CNS", "result": 3710, "unit": "nM"}, {"measurement": "GI50", "setting": "SNB-75 CNS", "result": 1700, "unit": "nM"}, {"measurement": "TGI", "setting": "SNB-75 CNS", "result": 3250, "unit": "nM"}, {"measurement": "GI50", "setting": "SR leukemia", "result": 357, "unit": "nM"}, {"measurement": "TGI", "setting": "SR leukemia", "result": 1240, "unit": "nM"}, {"measurement": "GI50", "setting": "SW-620 colon", "result": 1840, "unit": "nM"}, {"measurement": "TGI", "setting": "SW-620 colon", "result": 3700, "unit": "nM"}, {"measurement": "GI50", "setting": "TK-10 renal", "result": 2790, "unit": "nM"}, {"measurement": "TGI", "setting": "TK-10 renal", "result": 4510, "unit": "nM"}, {"measurement": "GI50", "setting": "U251 CNS", "result": 2120, "unit": "nM"}, {"measurement": "TGI", "setting": "U251 CNS", "result": 3870, "unit": "nM"}, {"measurement": "GI50", "setting": "UACC-257 melanoma", "result": 2030, "unit": "nM"}, {"measurement": "TGI", "setting": "UACC-257 melanoma", "result": 3770, "unit": "nM"}, {"measurement": "GI50", "setting": "UACC-62 melanoma", "result": 1970, "unit": "nM"}, {"measurement": "TGI", "setting": "UACC-62 melanoma", "result": 3820, "unit": "nM"}, {"measurement": "GI50", "setting": "UO-31 renal", "result": 1350, "unit": "nM"}, {"measurement": "TGI", "setting": "UO-31 renal", "result": 2820, "unit": "nM"}]}]}
